Laboratory results from patent publication US9879050B2, “Substituted urea depsipeptide analogs as activators of the CLPP endopeptidase” (priority 2013, dated 2018).
Converted amounts (≈) assume the structure as drawn. Like-named read-outs stand apart in the source and are kept apart here. *1 amine or outer side, *2 acyl side, *3 side chain or, on linkers, in order; H or OH if unused. Where a SMILES comes first, the peptide text is derived from it. Bridges are numbered along the chain shown (N, C = ends). [ ]: non-standard residue; d: D form. The star is where a group is joined. Phe(3,5-F2) = N[C@@H](Cc1cc(F)cc(F)c1)C(=O)O; Pro(4S-Me) = C[C@@H]1CN[C@H](C(=O)O)C1; NH(4-Et-phenyl) = CCc1ccc(N*)cc1; aThr = C[C@H](O)[C@H](N)C(=O)O; Pip = O=C(O)[C@@H]1CCCCN1; CO = O=C([*:1])[*:2]

Columns and labels:
S. aureus ClpP (Sa-ClpP) = molecular target: T1, S. aureus ClpP (Sa-ClpP) (Staphylococcus aureus, UniProt Q2G036); assay: ClpP activation, casein-BODIPY digestion assay (first described method); type: biochemical; details: first described ClpP activation assay (**); 10 μM saClpP, 25 μg/ml BODIPY FL casein, 37° C.; read-out: ClpP Activation EC50
T1 construct: made in house; host or cells: E. coli BL21 (DE3)
Method: The compounds were assayed in a casein digestion assay in order to determine their effect on ClpP activation. Briefly, the assay was carried out using S. aureus ClpP (“Sa-ClpP”) overexpressed in E. coli BL21 (DE3) and purified in a two-step process. Purity of the protein was assessed through SDS PAGE analysis. EC50 evaluations were conducted in triplicate in a 20 μl assay format using a method adapted from Maurizi et al. (Methods Enzymol. (1994) 244:314-331.). Each well contained 10 μM saClpP, 25 μg/ml BODIPY FL casein (Invitrogen Corporation, San Diego, Calif.), and test compound in concentrations ranging between 0-100 μM in assay buffer (50 mM Tris pH 8, 200 mM KCl, and 1 mM TCEP). The reaction took place at 37° C. Fluorescence (excitation 485 nm; emission 528 nm) was measured in five minute intervals over a 45 min period using a BioTek HT fluorescence microplate reader (BioTek Instruments, Inc., Winooski, Vt.). Velocity of each reaction was calculated and data was fit to a dose response curve using GraphPad Prism® software (GraphPad Software, Inc., La Jolla, Calif.). EC50 is the effective concentration of compound which causes 50% activation of S. aureus ClpP in the foregoing BODIPY FL casein assay.

Sa-ClpP [1] = molecular target: T2, Sa-ClpP (Staphylococcus aureus, UniProt Q2G036); assay: ADEP displacement fluorescence polarization assay; type: binding, S. aureus; details: 1 μM Sa-ClpP, 50 nM FP probe ADEP 2591; read-out: ADEP Displacement IC50
T2 construct: made in house; host or cells: E. coli BL21 (DE3)
How it was run: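 Displacement of TAMRA-labelled ADEP 2591 probe (50 nM) from 1 μM Sa-ClpP, pre-equilibrated 1 h in Tris·HCl pH 8.0 with 2% DMSO, then 120 min at room temperature with compound, triplicate. Polarization (mP) read ex 530/em 579 nm, normalised to 20 μM ADEP 2378 and DMSO controls; four-parameter fit.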

[2] = Cytotoxicity assay, CellTiter-Glo cell viability; type: cell-based; details: African green monkey
How it was run: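 Vero cells seeded overnight at 37 °C in DMEM with 10% FBS, then exposed to serial dilutions of compound for 72 h. Viability read by CellTiter-Glo luminescence; IC50 from duplicates, given as the range of two independent experiments.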

Sa-ClpP [3] = molecular target: T2, Sa-ClpP; assay: ClpP activation, EnzCheck Protease Assay with Bodipy-FL casein (second described method); type: biochemical, S. aureus; details: read-out: ClpP Activation EC50 (converted)
How it was run: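 Sa-ClpP (2 μM in master mix) with Bodipy-FL casein (2 μM in master mix) in Tris-HCl pH 8.0, 0.01% Triton X-100, compounds in 2% DMSO, triplicate. Fluorescence (ex 485/em 520 nm) followed 30 min; degradation slopes normalized to ADEP4 and DMSO controls, EC50 and % activation by four-parameter fit.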

S. aureus USA 300 ΔClpP = assay: Minimal inhibitory concentration, microbroth dilution; type: cell-based, Staphylococcus aureus; details: ClpP inactivated strain
How it was run: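 Compound was diluted twofold in the appropriate broth. Bacterial suspension (approx. 10^5 cfu/mL) was then added in equal volume, giving a maximum test concentration of 200 μM. After aerobic overnight incubation at 37 °C, wells were inspected visually for growth.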

B. subtilis ATCC 23857 = assay: as above; type: cell-based; details: Bacillus subtilis, ATCC23857, read-out: Minimal Inhibitory Concentration B. subtilis ATCC 23857
Method: (§1) Minimal inhibitory concentrations (“MICs”) were determined using the microbroth dilution method according to Clinical Laboratory Standards Institute (CLSI; National, C.F. C. L. S., Methods for Dilution Antimicrobial Susceptibility Tests for Bacteria Grow aerobically-Seventh Edition: Approved Standard M7-A7, CLSI, Wayne, Pa., USA, 2008) and were read by visual inspection. Two fold serial dilutions of test compound in 100 μL of the appropriate broth media were first prepared in 96-well round bottom microtiter plates (Nalgene Nunc International, Rochester, N.Y., USA). An equivalent volume (100 μL) of bacterial broth inocula containing approximately 10^5 bacterial cfu/mL was added to each well to give final concentrations of test compound starting at 200 μM. The plates were then incubated aerobically at 37° C. All strains were incubated overnight. After incubations, in all cases the MIC was recorded as the lowest concentration of drug that prevented bacterial growth. The bacterial strains for which MIC was determined as described in Table 4.

S. aureus ATCC 29213 = assay: as above; type: cell-based; details: Staphylococcus aureus, ATCC29213, read-out: Minimal Inhibitory Concentration S. aureus ATCC 29213
Method: as §1

S. pneumoniae R6 = assay: as above; type: cell-based; details: Streptococcus pneumoniae, R6, read-out: Minimal Inhibitory Concentration S. pneumoniae R6
How it was run: (§2)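 Twofold serial dilutions in broth per CLSI M7-A7 microbroth dilution, incubated aerobically overnight at 37° C. MIC read visually as lowest concentration preventing bacterial growth.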

S. pyogenes ATCC 700294 = assay: as above; type: cell-based; details: Streptococcus pyogenes, ATCC700294, read-out: Minimal Inhibitory Concentration S. pyogenes ATCC 700294
How it was run: as §2

[4] = Vero cells, 72 hours, read-out: Cytotoxicity IC50

T1 sequence (Q2G036 whole entry): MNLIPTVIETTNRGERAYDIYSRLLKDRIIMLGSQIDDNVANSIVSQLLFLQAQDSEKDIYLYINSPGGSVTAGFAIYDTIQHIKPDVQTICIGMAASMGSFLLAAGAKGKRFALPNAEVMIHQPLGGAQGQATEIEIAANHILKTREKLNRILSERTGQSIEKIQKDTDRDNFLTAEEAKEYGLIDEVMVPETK
T2 sequence (Q2G036 whole entry): as above

SMILES	EC50 (S. aureus ClpP (Sa-ClpP)) [µM]	IC50 (Sa-ClpP [1]) [µM]	IC50 at 72 h [2] [µM]	EC50 (Sa-ClpP [3]) [µM]	IC50 at 72 h ([2]; Vero kidney epithelial cells (ATCC CCL-81), Vero cells, 72 hours, read-out: Cytotoxicity IC50) [µM]	Minimal Inhibitory Concentration S. aureus USA 300 ΔClpP (S. aureus USA 300 ΔClpP) [µM]	IC50 at 72 h [2, 4] [µM]	MIC (B. subtilis ATCC 23857) [µM]	MIC (S. aureus ATCC 29213) [µM]	MIC (S. pneumoniae R6) [µM]	MIC (S. pyogenes ATCC 700294) [µM]
CCc1cccc(NC(=O)N[C@@H](Cc2ccccc2)C(=O)N[C@H]2COC(=O)[C@@H]3C[C@@H](C)CN3C(=O)[C@H](C)NC(=O)[C@@H]3CCCCN3C(=O)[C@@H]3CCCN3C2=O)c1 [Compound 10, (S)—N-((2R,6S,8aS,14aS,20S,23aS)-2,6-Dimethyl-5,8,14,19,23-Pentaoxooctadecahydro-1H,5H,14H,19H-Pyrido[2,1-1]Dipyrrolo[2,1-C:2′,1′-L][1]Oxa[4,7,10,13]Tetraazacyclohexadecin-20-Yl)-2-(3-(3-Ethylphenyl)Ureido)-3-Phenylpropanamide]	1.5 ± 0.6	13.6 ± 1.7	74.8 ± 4.6	0.9 ± 0.018	–	–	–	–	–	–	–
C[C@@H]1C[C@H]2C(=O)OC[C@H](NC(=O)[C@H](Cc3cc(F)cc(F)c3)NC(=O)Nc3ccc(OC(F)(F)F)cc3)C(=O)N3CCC[C@H]3C(=O)N3CCCC[C@H]3C(=O)N[C@@H](C)C(=O)N2C1 [Compound 13, (S)-3-(3,5-Difluorophenyl)-N-((2R,6S,8aS,14aS,20S,23aS)-2,6-Dimethyl-5,8,14,19,23-Pentaoxooctadecahydro-1H,5H,14H,19H-Pyrido[2,1-I]Dipyrrolo[2,1-C:2′,1′-L][1]Oxa[4,7,10,13]Tetraazacyclohexadecin-20-Yl)-2-(3-(4-(Trifluoromethoxy)Phenyl)Ureido)Propanamide]	3.2 ± 0.6	5.69 ± 0.5	70.9 ± 8.9	–	–	–	–	–	–	–	–
CCc1ccc(NC(=O)N[C@@H](Cc2cc(F)cc(F)c2)C(=O)N[C@H]2COC(=O)[C@@H]3C[C@@H](C)CN3C(=O)[C@H](C)NC(=O)[C@@H]3CCCCN3C(=O)[C@@H]3CCCN3C2=O)cc1 [Compound 14, (S)-3-(3,5-Difluorophenyl)-N-((2R,6S,8aS,14aS,20S,23aS)-2,6-Dimethyl-5,8,14,19,23-Pentaoxooctadecahydro-1H,5H,14H,19H-Pyrido[2,1-I]Dipyrrolo[2,1-C:2′,1′-L][1]Oxa[4,7,10,13]Tetraazacyclohexadecin-20-Yl)-2-(3-(4-Ethylphenyl)Ureido)Propanamide]	2.5 ± 0.6	61.3 ± 5	70.5 ± 13.5	–	–	–	–	–	–	–	–
CCc1ccc(NC(=O)N[C@@H](Cc2cc(F)cc(F)c2)C(=O)N[C@@H]2C(=O)N3CCC[C@H]3C(=O)N3CCCC[C@H]3C(=O)N[C@@H](C)C(=O)N3C[C@@H](C)C[C@H]3C(=O)O[C@H]2C)cc1 [Compound 21, (S)-3-(3,5-Difluorophenyl)-2-(3-(4-Ethylphenyl)Ureido)-N-((2R,6S,8aS,14aS,20S,21S,23aS)-2,6,21-Trimethyl-5,8,14,19,23-Pentaoxooctadecahydro-1H,5H,14H,19H-Pyrido[2,1-I]Dipyrrolo[2,1-C:2′,1′-L][1]Oxa[4,7,10,13]Tetraazacyclohexadecin-20-Yl)Propanamide] ({NH(4-Et-phenyl)-CO}-[Phe(3,5-F2)][aThr]P[Pip]A[Pro(4S-Me)]; ester 2-C)	1.1 ± 0.3	7.3 ± 0.3	–	0.33	68.5 ± 6.6	–	–	–	–	–	–
Cc1ccc(NC(=O)N[C@@H](Cc2cc(F)cc(F)c2)C(=O)N[C@@H]2C(=O)N3CCCC3C(=O)N(C)[C@@H](C)C(=O)N[C@@H](C)C(=O)N3C[C@@H](C)CC3C(=O)O[C@H]2C)cc1 (stereo partly drawn) [Compound 26, (2S)-3-(3,5-Difluorophenyl)-N-((2S,6S,9S,11aS,17S,18S)-2,6,9,10,18-Pentamethyl-5,8,11,16,20-Pentaoxohexadecahydro-1H,5H,16H-Dipyrrolo[2,1-C:2′,1′-L][1]Oxa[4,7,10,13]Tetraazacyclohexadecin-17-Yl)-2-(3-(P-Tolyl)Ureido)Propanamide]	–	8.2 ± 0.3	–	0.29 ± 0.01	–	200	40.5 ± 3.8	0.03 (≈ 0.0235 µg/mL)	0.2 (≈ 0.156 µg/mL)	0.125 (≈ 0.0977 µg/mL)	0.5 (≈ 0.391 µg/mL)
Cc1ccc(NC(=O)N[C@@H](Cc2cc(F)cc(F)c2)C(=O)N[C@@H]2C(=O)N3CCCC3C(=O)N3CCOCC3C(=O)N[C@@H](C)C(=O)N3C[C@@H](C)CC3C(=O)O[C@H]2C)cc1 (stereo partly drawn) [Compound 33, (S)-3-(3,5-Difluorophenyl)-2-(3-(P-Tolyl)Ureido)-N-((6aS,12S,13S,1 5aS,17S,21S,23aS)-13,17,21-Trimethyl-6,11,15,20,23-Pentaoxooctadecahydro-6H,11H,15H-[1,4]Oxazino[3,4-I]Dipyrrolo[2,1-C:2′,1′-L][1]Oxa[4,7,10,13]Tetraazacyclohexadecin-12-Yl)Propanamide]	–	5.6 ± 0.3	–	0.39 ± 0.02	–	200	41 ± 4.3	0.2 (≈ 0.162 µg/mL)	0.2 (≈ 0.162 µg/mL)	0.098 (≈ 0.0794 µg/mL)	0.39 (≈ 0.316 µg/mL)
Cc1ccc(NC(=O)N[C@@H](Cc2cc(F)cc(F)c2)C(=O)N[C@@H]2C(=O)N3CCCC3C(=O)N3CCCCC3C(=O)N[C@@H](C)C(=O)N3C[C@H](C)CC3C(=O)O[C@H]2C)cc1 (stereo partly drawn) [Compound 39, (S)-3-(3,5-Difluorophenyl)-2-(3-(P-Tolyl)Ureido)-N-((2R,6S,8aS,14aS,20S,21S,23aS)-2,6,21-Trimethyl-5,8,14,19,23-Pentaoxooctadecahydro-1H,5H,14H,19H-Pyrido[2,1-I]Dipyrrolo[2,1-C:2′,1′-L][1]Oxa[4,7,10,13]Tetraazacyclohexadecin-20-Yl)Propanamide]	–	9 ± 0.4	–	0.48 ± 0.03	–	100	40 ± 4.1	0.02 (≈ 0.0162 µg/mL)	0.05 (≈ 0.0404 µg/mL)	0.05 (≈ 0.0404 µg/mL)	0.2 (≈ 0.162 µg/mL)
Cc1ccc(NC(=O)N[C@@H](Cc2ccccc2)C(=O)N[C@H]2COC(=O)C3C[C@H](C)CN3C(=O)[C@H](C)NC(=O)C3CCCCN3C(=O)C3CCCN3C2=O)cc1 (stereo partly drawn) [Compound 43, (S)—N-((2S,6S,8aS,14aS,20S,23aS)-2,6-Dimethyl-5,8,14,19,23-Pentaoxooctadecahydro-1H,5H,14H,19H-Pyrido[2,1-I]Dipyrrolo[2,1-C:2′,1′-L][1]Oxa[4,7,10,13]Tetraazacyclohexadecin-20-Yl)-3-Phenyl-2-(3-(P-Tolyl)Ureido)Propanamide]	–	6.57 ± 0.2	–	0.37 ± 0.03	–	>200	74.5 ± 8.8	0.4 (≈ 0.303 µg/mL)	1.6 (≈ 1.21 µg/mL)	0.2 (≈ 0.152 µg/mL)	0.8 (≈ 0.606 µg/mL)
